Consider two compounds from patent US10842847B2, “Treatment of degenerative joint disease” (Ampio Pharmaceuticals, Inc., priority 2011, dated 2020).

For this assay, the system named is oxidized collagen IV. Put plainly: Binding of DA-DKP and NAT to H2O2 treated collagen IV (LCMS of <5 kDa fraction). Further details: species or system human. The conditions noted are these: for binding to oxidized collagen, result in words: equimolar concentration. As for the experimental part: Collagen source: 1 mg/ml Collagen IV form human placenta in 0.25% acetic acid (Sigma™). The collagen was oxidixed with 500 μM H2O2 in 1×PBS for 1 hour at 37° C. The oxidized collagen IV (final=0.2 mg/ml) was then incubated with 2 μM DA-DKP or 2 NAT in PBS for 1 hour at 37° C. At the end of the incubation, the <5 kDa fraction was isolated by a VIVASPIN® 2 microcentrifugal filter having a molecular weight cutoff of 5,000. The <5 kDa fraction was analyzed for DA-DKP and/or NAT content using a liquid chromatograph-mass spectrometery (LCMS) method for DA-DKP analysis.

Setting [1] is: 2 μM + oxidized Collagen IV 0.2 mg/ml, 1 hour at 37° C., content of <5 kDa fraction.

Entries after “also recorded” stand apart in the source; their conditions may differ.

With `C[C@@H]1NC(=O)[C@H](CC(=O)O)NC1=O` [DA-DKP, aspartyl-alanyl diketopiperazine], the “binding to oxidized collagen, result in words” value is given as “bind to oxidized forms of collagen”. Moreover, the Average % decrease under setting [1] came to 26.0%. Besides, the Average % decrease (2 μM + oxidized Collagen IV w/2 μM NAT) is reported as 25.6%.
With `CC(=O)N[C@@H](Cc1c[nH]c2ccccc12)C(=O)O` [NAT, N-acetyl-tryptophan], the “binding to oxidized collagen, result in words” value is “binds more to oxidized collagen IV than DA-DKP; also recorded: bind to oxidized forms of collagen”. Moreover, the Average % decrease under setting [1] is listed as 48.9%. The Average % decrease (2 μM + oxidized Collagen IV w/2 μM DA-DKP) amounted to 28.7%.
